The results in this text go back to ChEMBL document CHEMBL4196127, “Discovery of AM-6226: A Potent and Orally Bioavailable GPR40 Full Agonist That Displays Efficacy in Nonhuman Primates” (ACS Med Chem Lett, 2018).

For data set [1], the target named is T1, Free fatty acid receptor 1 (Homo sapiens, UniProt O14842). Description: Agonist activity at GPR40 (unknown origin) expressed in CHO cells incubated for 2 hrs measured over 20 secs in presence of human serum albumin by aequorin based luminescence assay. It counts as functional, cell-based.
In data set [2] the target is T1, Free fatty acid receptor 1. Kind of data set: Agonist activity at GPR40 (unknown origin) expressed in CHO cells incubated for 2 hrs measured over 20 secs in presence of human serum albumin by aequorin based luminescence assay relative to AM-1638. It counts as functional, cell-based.
A short description of data set [3]: Fraction unbound in rat plasma at 0.5 mg/kg, iv or 2 mg/kg, po. It counts as ADME, organism-based.
Data set [4] has as its system Rattus norvegicus. Description: (§1) AUC in rat at 2 mg/kg, po. It counts as ADME, organism-based. The following applies: in vivo.
A short description of data set [5]: Fraction unbound in cynomolgus monkey plasma at 0.5 mg/kg, iv. It counts as ADME, organism-based, Macaca fascicularis.
A short description of data set [6]: AUC in cynomolgus monkey at 10 mg/kg, po. It counts as ADME, organism-based, Macaca fascicularis. Conditions: in vivo.
For data set [7], the system named is Cynomolgus monkey. Description: Volume of distribution at steady state in cynomolgus monkey at […]. It counts as ADME, organism-based, Macaca fascicularis. The following applies: in vivo.
Data set [8] can be described thus: Oral bioavailability in cynomolgus monkey at 10 mg/kg. It counts as ADME, organism-based, Macaca fascicularis. Conditions: in vivo.
The test system of data set [9] is Rattus norvegicus. Kind of data set: Clearance in rat at 0.5 mg/kg, iv. Conditions: in vivo.
Data set [10] is described as follows: Clearance in cynomolgus monkey at 0.5 mg/kg, iv. The following applies: in vivo.
For data set [11], the system named is Rattus norvegicus. Kind of data set: Volume of distribution at steady state in rat at 0.5 mg/kg, iv. The following applies: in vivo.
Data set [12] has as its system Cynomolgus monkey. Kind of data set: Antidiabetic activity in prediabetic high fat feed cynomolgus monkey assessed as reduction in plasma glucose AUC at 10 mg/kg, po administered via gavage 2 hrs prior to glucose challenge by oral glucose tolerance test. It counts as functional, Macaca fascicularis. The arrangement: scale not given: the % may be the effect or the level left.

The nature of data set [13]: Cmax in rat at 2 mg/kg, po. It counts as ADME, organism-based. Also noted: dose 2 mg/kg, route oral. Conditions: in vivo.
A short description of data set [14]: as §1. The following applies: in vivo. It counts as ADME, organism-based.
Data set [15] can be described thus: Half life in rat at 0.5 mg/kg, iv. It counts as ADME, organism-based. The following applies: in vivo.
Data set [16] is described as follows: Oral bioavailability in rat at 2 mg/kg. It counts as ADME, organism-based. Conditions: in vivo.
Data set [17] in a line: Clearance in rat at 0.5 mg/kg, iv. The following applies: in vivo.
Data set [18] is described as follows: Fraction unbound in dog plasma at 0.5 mg/kg, iv. It counts as ADME, organism-based, Canis lupus familiaris.
Data set [19] in a line: AUC in dog at 2 mg/kg, po. It counts as ADME, organism-based, Canis lupus familiaris. The following applies: in vivo.
In data set [20] the test system is Canis familiaris. Kind of data set: Volume of distribution at steady state in dog at […]. Conditions: in vivo. It counts as ADME, organism-based, Canis lupus familiaris.
Data set [21] in a line: Half life in dog at 0.5 mg/kg, iv. It counts as ADME, organism-based, Canis lupus familiaris. The following applies: in vivo.
A short description of data set [22]: Half life in cynomolgus monkey at 0.5 mg/kg, iv. It counts as ADME, organism-based, Macaca fascicularis. Conditions: in vivo.
A short description of data set [23]: Oral bioavailability in dog at 2 mg/kg. The following applies: in vivo. It counts as ADME, organism-based, Canis lupus familiaris.
A short description of data set [24]: Clearance in dog at 0.5 mg/kg, iv. The following applies: in vivo.

T1 sequence (O14842 whole entry): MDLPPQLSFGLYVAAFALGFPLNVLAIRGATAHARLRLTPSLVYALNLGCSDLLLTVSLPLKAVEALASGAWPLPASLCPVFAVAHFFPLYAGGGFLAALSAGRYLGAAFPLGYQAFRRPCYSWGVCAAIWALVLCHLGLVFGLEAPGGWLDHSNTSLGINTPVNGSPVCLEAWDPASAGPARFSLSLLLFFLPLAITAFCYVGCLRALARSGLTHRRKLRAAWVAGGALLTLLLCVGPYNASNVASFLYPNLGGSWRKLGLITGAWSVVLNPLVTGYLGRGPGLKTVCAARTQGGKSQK

As for `COc1ccc(F)c(-c2ccc(COc3cccc([C@@H](CC(=O)O)C4CCC4)c3)cc2[C@@H]2CCCC2(C)C)c1`, in data set [1], the concentration giving a half-maximal response (EC50) is 0.09 µM. Also, in [2], the Efficacy came to 100%.
Regarding `COc1ccc(F)c(-c2ccc(COc3cccc([C@@H](CC(=O)O)C4CC4)c3)cc2[C@H]2CCCC2(C)C)c1`, the EC50 in data set [1] was 0.31 µM. Besides, in data set [2], the Efficacy was 100%.
For `COc1ccc(F)c(-c2ccc(COc3cccc([C@@H](CC(=O)O)C4CC4)c3)cc2C2=CCCC2(C)C)c1`, the Efficacy in data set [2] amounted to 100%. For the same compound, the fraction unbound turned out to be 0.01 in data set [3] and 0.012 in data set [5]. Also, the values for the AUC in data set [4] and in data set [6] were 15.1 µM·h and 18.8 µM·h, respectively. Further, the results for the Vdss in [7] and in [11] were 2 L/kg and 1.1 L/kg, respectively. In data set [8], this compound registered a bioavailability of 71%. Moreover, the CL in [9] was 15.2 mL/min/kg. In data set [10], this compound returned a clearance of 13.5 mL/min/kg.
Consider `COc1ccc(F)c(-c2ccc(COc3cccc([C@H](C)CC(=O)O)c3)cc2[C@@H]2CCCC2(C)C)c1`, for which, in [1], the EC50 came out at 0.17 µM. Moreover, the Efficacy in data set [2] came out at 106%.
For `COc1ccc(F)c(-c2ccc(COc3cccc([C@H](CC(=O)O)C4CC4)c3)cc2[C@@H]2CCCC2(C)C)c1`, the EC50 in [1] was 1.83 µM. Also, the Efficacy in [2] came to 89%.
With `N[C@@H](CC(=O)N1CCn2c(nnc2C(F)(F)F)C1)Cc1cc(F)c(F)cc1F` [SITAGLIPTIN], the Activity in data set [12] was 13%.
As to `COc1ccc(F)c(-c2ccc(COc3cccc([C@@H](CC(=O)O)C4CC4)c3F)cc2[C@@H]2CCCC2(C)C)c1`, in [1], the EC50 was 0.1 µM. In data set [2], the Efficacy came to 100%. The compound also gave a fraction unbound in data set [3] of 0.003. The compound further displayed a Cmax in data set [13] of 360 nM. Also, in data set [14], the AUC amounted to 2.43 µM·h. In addition, in data set [15], the half-life is 3.3 h. Moreover, the bioavailability in data set [16] came out at 32%. In addition, the clearance in data set [17] worked out at 8.17 mL/min/kg. In data set [11], the Vdss came to 1.9 L/kg.
As for `CC[C@H](CC(=O)O)c1cc(OCc2ccc(-c3cc(OC)ccc3F)c([C@@H]3CCCC3(C)C)c2)ccc1F`, the concentration giving a half-maximal response (EC50) in [1] was 0.21 µM. Also, the Efficacy in data set [2] is 100%.
With `CC[C@H](CC(=O)O)c1ccc(F)c(OCc2ccc(-c3cc(OC)ccc3F)c(C3=CCCC3(C)C)c2)c1`, the EC50 in data set [1] stood at 0.74 µM. Moreover, the Efficacy in data set [2] was found to be 82%.
In the same order, the values of `CCC[C@H](CC(=O)O)c1cccc(OCc2ccc(-c3cc(OC)ccc3F)c([C@@H]3CCCC3(C)C)c2)c1` are 0.11 µM and 100%.
In the same order, the values of `COc1ccc(F)c(-c2ccc(COc3cccc([C@@H](CC(=O)O)C4CC4)c3)cc2C2CCCC2(C)C)c1` (mixture of isomers) are 0.14 µM and 97%.
Taken in the same sequence, the figures for `CC[C@@H](CC(=O)O)c1cccc(OCc2ccc(-c3cc(OC)ccc3F)c([C@@H]3CCCC3(C)C)c2)c1` were 1.96 µM and 76%.
For `CC[C@H](CC(=O)O)c1cccc(OCc2ccc(-c3cc(OC)ccc3F)c([C@@H]3CCCC3(C)C)c2)c1`, the EC50 in data set [1] came out at 0.08 µM. The Efficacy in data set [2] amounted to 102%. In addition, the fraction unbound in [3] was 0.006. Moreover, the Cmax in data set [13] is 370 nM. For the same compound, the AUC in [14] is 1.74 µM·h. For the same compound, the half-life in data set [15] was 2.1 h. In data set [16], this compound gave a bioavailability of 29%. In addition, in data set [17], the clearance came to 11.2 mL/min/kg. This compound also yielded a Vdss in data set [11] of 1.12 L/kg.
Take `COc1ccc(F)c(-c2ccc(COc3cccc([C@@H](CC(=O)O)C4CC4)c3)cc2[C@@H]2CCCC2(C)C)c1`: the EC50 in [1] turned out to be 0.08 µM. For the same compound, the Efficacy in data set [2] is 101%. This compound registered a fraction unbound in [3] of 0.006. In addition, the Cmax in data set [13] came out at 250 nM. In [14], the AUC was determined as 1.83 µM·h. In data set [17], this compound displayed a clearance of 12 mL/min/kg. Also, in data set [11], the Vdss came to 1.68 L/kg.
For `COc1ccc(F)c(-c2ccc(COc3cccc([C@@H](CC(=O)O)CC4CC4)c3)cc2[C@@H]2CCCC2(C)C)c1`, the EC50 in [1] is 0.1 µM. Further, the Efficacy in data set [2] turned out to be 98%.
Taken in the same sequence, the figures for `COc1ccc(F)c(-c2ccc(COc3cccc(CCC(=O)O)c3)cc2[C@@H]2CCCC2(C)C)c1` were 0.45 µM and 120%.
Taken in the same sequence, the figures for `CC[C@H](CC(=O)O)c1cc(F)cc(OCc2ccc(-c3cc(OC)ccc3F)c([C@@H]3CCCC3(C)C)c2)c1` were 0.09 µM and 105%.
For `CC[C@H](CC(=O)O)c1cccc(OCc2ccc(-c3cc(OC)ccc3F)c(C3CCCC3(C)C)c2)c1F` (single isomer, unassigned), the EC50 in data set [1] amounted to 0.12 µM. Also, the Efficacy in data set [2] stood at 104%. In addition, the fraction unbound in data set [3] is 0.003; in data set [18], 0.034; in [5], 0.017. In addition, the Cmax in [13] came to 1180 nM. The AUC in [14] turned out to be 8.22 µM·h; in data set [19], 11.6 µM·h; in [6], 80.4 µM·h. Besides, the half-life in data set [15] was 2 h; in data set [21] it was 4.1 h; in data set [22], 3.3 h. For the same compound, the bioavailability was 72% in data set [16], 62% in [23] and 91% in data set [8]. The figures for the Vdss in data set [20], in [7] and in data set [11] were 0.68 L/kg, 0.5 L/kg and 0.81 L/kg, respectively. In data set [12], the Activity was found to be 18%. Further, the clearance worked out at 5.5 mL/min/kg in [17], 3.5 mL/min/kg in data set [24] and 3.67 mL/min/kg in data set [10].

One may read the EC50 as the concentration giving half of the maximal effect. What is called fraction unbound is the share of the substance not bound to proteins or other matrix. As usually defined, the AUC is concentration integrated over time. A word on the bioavailability: it is dose-corrected exposure relative to a reference, in per cent. As a reminder, the clearance is the rate of elimination divided by the concentration. As a reminder, the Cmax is the peak of the concentration-time curve. By half-life is commonly meant how long it takes for the measured level to halve.
